Article PMC12396409, “Screening and hit evaluation of a microbial metabolite library against the pathogenic Plasmodium falciparum and Toxoplasma gondii parasites” (International Journal for Parasitology: Drugs and Drug …, 2025)
Where two headings read alike, the source gives them in different places.

Assays:
[1] = test system: T. gondii RH strain (RH-Tub-eYFP) tachyzoites; assay: microbe, parasite or virus in culture; format: cell-based, Toxoplasma gondii; settings: 72 h
[2] = test system: P. falciparum 3D7 parasites; assay: P. falciparum growth inhibition assay, 1-cycle (72 h treatment), SYBR DNA staining (library screen at 2 μg/mL and dose-response); format: cell-based, Plasmodium falciparum
[3] = test system: P. falciparum 3D7 parasites; assay: P. falciparum growth inhibition assay, 2-cycle (120 h treatment), delayed-death screen and dose-response; format: cell-based, Plasmodium falciparum
[4] = T. gondii RH, library screen at 2 μg/mL, % growth, replicate 1
[5] = T. gondii RH, library screen at 2 μg/mL, % growth, replicate 2
[6] = P. falciparum 3D7, 72 h, library screen at 2 μg/mL, % growth, replicate 1
[7] = P. falciparum 3D7, 72 h, library screen at 2 μg/mL, % growth, replicate 2
[8] = P. falciparum 3D7, 120 h, library screen at 2 μg/mL, % growth, replicate 1
[9] = P. falciparum 3D7, 120 h, library screen at 2 μg/mL, % growth, replicate 2
[10] = library screen at 2 μg/mL, % growth, replicate 1
[11] = library screen at 2 μg/mL, % growth, replicate 2
[12] = library screen at 2 μg/mL, 72 h, % growth, replicate 1
[13] = library screen at 2 μg/mL, 72 h, % growth, replicate 2
[14] = library screen at 2 μg/mL, 120 h, % growth, replicate 1
[15] = library screen at 2 μg/mL, 120 h, % growth, replicate 2

CCOC(=O)c1c2ccocc-2oc1=O [BIA-K1981]
Tg_72h_%Growth_Rep1 [1, 4]: 89.77%
Tg_72h_%Growth_Rep2 [1, 5]: 96.78%
Pf_72h_%Growth_Rep1 [2, 6]: 72.42%
Pf_72h_%Growth_Rep2 [2, 7]: 90.55%
Pf_120h_%Growth_Rep1 [3, 8]: 169.06%
Pf_120h_%Growth_Rep2 [3, 9]: 89.57%

CCCCc1ccc(C(=O)O)nc1 [Fusaric acid]
percent parasite growth at 2 µg/mL ([1]; Toxoplasma gondii, library screen at 2 μg/mL, % growth, replicate 1, read-out: Tg_72h_%Growth_Rep1): 118%
percent parasite growth at 2 µg/mL ([1]; Toxoplasma gondii, library screen at 2 μg/mL, % growth, replicate 2, read-out: Tg_72h_%Growth_Rep2): 83.8%
activity at 2 µg/mL ([2]; Plasmodium falciparum, 3D7, 72 h, library screen at 2 μg/mL, 72 h, % growth, replicate 1, read-out: Pf_72h_%Growth_Rep1): 78%
activity at 2 µg/mL ([2]; Plasmodium falciparum, 3D7, 72 h, library screen at 2 μg/mL, 72 h, % growth, replicate 2, read-out: Pf_72h_%Growth_Rep2): 31.2%
activity at 2 µg/mL ([3]; Plasmodium falciparum, 3D7, 120 h, library screen at 2 μg/mL, 120 h, % growth, replicate 1, read-out: Pf_120h_%Growth_Rep1): 80.2%
activity at 2 µg/mL ([3]; Plasmodium falciparum, 3D7, 120 h, library screen at 2 μg/mL, 120 h, % growth, replicate 2, read-out: Pf_120h_%Growth_Rep2): 85%

CN1CCC2(c3cccc4c3NC3N(C)CCC43C34CCN(C)C3Nc3ccccc34)c3ccccc3NC12 (centres unmarked) [BIA-H1948]
Tg_72h_%Growth_Rep1 [1, 4]: 27.32%
Tg_72h_%Growth_Rep2 [1, 5]: 71.35%
Pf_72h_%Growth_Rep1 [2, 6]: 8.04%
Pf_72h_%Growth_Rep2 [2, 7]: 0.51%
Pf_120h_%Growth_Rep1 [3, 8]: 10.24%
Pf_120h_%Growth_Rep2 [3, 9]: -13.19%

C=C[C@]1(C)C[C@@H](OC(=O)CSCCN(CC)CC)[C@]2(C)[C@H](C)CC[C@]3(CCC(=O)[C@H]32)[C@@H](C)[C@@H]1O [Tiamulin, reference compound]
percent parasite growth at 2 µg/mL ([1]; Toxoplasma gondii, T. gondii, screen at 2 μg/mL, replicate 1, read-out: Tg_72h_%Growth_Rep1): 55.8%
percent parasite growth at 2 µg/mL ([1]; Toxoplasma gondii, T. gondii, screen at 2 μg/mL, replicate 2, read-out: Tg_72h_%Growth_Rep2): 29.4%
IC50 ([1]; Toxoplasma gondii, RH strain, mean ± S.D., n ≥ 3, read-out: IC50 (μM), T. gondii (converted)): > 1 µM
Screen (T. gondii) ([1]; library screen at 2 μg/mL, RH strain): I
activity at 2 µg/mL ([2]; Plasmodium falciparum, 3D7; P. falciparum, 2 μg/mL, 72 h; read-out: 1) Growth (%) at 72 h): 55%
activity at 2 µg/mL ([2]; Plasmodium falciparum, 3D7, P. falciparum, 72 h, screen at 2 μg/mL, replicate 1, read-out: Pf_72h_%Growth_Rep1): 61.3%
activity at 2 µg/mL ([2]; Plasmodium falciparum, 3D7, P. falciparum, 72 h, screen at 2 μg/mL, replicate 2, read-out: Pf_72h_%Growth_Rep2): 48.7%
IC50 ([2]; Plasmodium falciparum, 3D7, 72 h treatment, mean ± S.D., n ≥ 3, read-out: IC50 (μM), P. falciparum): > 1 µM
delayed-death activity in the 120 h screen against P. falciparum ([3]; 2 μg/mL, criteria: ≥40 % growth at 72 h, ≤20 % growth at 120 h, at least 5-fold): delayed-death activity
3) Fold change (72 h/120 h) ([3]; P. falciparum, growth at 72 h / growth at 120 h, 2 μg/mL): 7.0
IC50 ([3]; Plasmodium falciparum, 3D7, read-out: IC50, P. falciparum, 120 h dose-response (delayed-death)): ~1 µM
activity at 2 µg/mL ([3]; Plasmodium falciparum, 3D7; P. falciparum, 2 μg/mL, 120 h; read-out: 2) Growth (%) at 120 h): 7.81%
activity at 2 µg/mL ([3]; Plasmodium falciparum, 3D7, P. falciparum, 120 h, screen at 2 μg/mL, replicate 1, read-out: Pf_120h_%Growth_Rep1): 6.75%
activity at 2 µg/mL ([3]; Plasmodium falciparum, 3D7, P. falciparum, 120 h, screen at 2 μg/mL, replicate 2, read-out: Pf_120h_%Growth_Rep2): 8.86%

CC(=O)[C@H]1c2c(c(O)c3c(O)cccc3c2-c2c3c(c(O)c4c(O)cccc24)C(=O)C[C@](C)(O)[C@H]3C(C)=O)C(=O)C[C@]1(C)O [A 39183A]
Tg_72h_%Growth_Rep1 [1, 10]: 90.59%
Tg_72h_%Growth_Rep2 [1, 11]: 100.22%
Pf_72h_%Growth_Rep1 [2, 12]: 2.40%
Pf_72h_%Growth_Rep2 [2, 13]: 2.28%
Pf_120h_%Growth_Rep1 [3, 14]: 5.28%
Pf_120h_%Growth_Rep2 [3, 15]: -2.60%

COC(=O)c1cc(O)cc(OC)c1C(=O)c1c(O)cc(C)cc1O [Sulochrin]
percent parasite growth at 2 µg/mL ([1]; Toxoplasma gondii, T. gondii, parasite screen 2 μg/mL, % growth, replicate 1, read-out: Tg_72h_%Growth_Rep1): 153%
percent parasite growth at 2 µg/mL ([1]; Toxoplasma gondii, T. gondii, parasite screen 2 μg/mL, % growth, replicate 2, read-out: Tg_72h_%Growth_Rep2): 100%
activity at 2 µg/mL ([2]; Plasmodium falciparum, 3D7, P. falciparum, 72 h, parasite screen 2 μg/mL, % growth, replicate 1, read-out: Pf_72h_%Growth_Rep1): 88.9%
activity at 2 µg/mL ([2]; Plasmodium falciparum, 3D7, P. falciparum, 72 h, parasite screen 2 μg/mL, % growth, replicate 2, read-out: Pf_72h_%Growth_Rep2): 90.8%
activity at 2 µg/mL ([3]; Plasmodium falciparum, 3D7, P. falciparum, 120 h, parasite screen 2 μg/mL, % growth, replicate 1, read-out: Pf_120h_%Growth_Rep1): 93.2%
activity at 2 µg/mL ([3]; Plasmodium falciparum, 3D7, P. falciparum, 120 h, parasite screen 2 μg/mL, % growth, replicate 2, read-out: Pf_120h_%Growth_Rep2): 96.4%

CC(=O)NCCc1cnc[nH]1 [Acetylhistamine, N-]
Tg_72h_%Growth_Rep1 [1, 10]: 95.97%
Tg_72h_%Growth_Rep2 [1, 11]: 105.85%
Pf_72h_%Growth_Rep1 [2, 12]: 82.83%
Pf_72h_%Growth_Rep2 [2, 13]: 91.72%
Pf_120h_%Growth_Rep1 [3, 14]: 90.99%
Pf_120h_%Growth_Rep2 [3, 15]: 93.21%
